Where a chain is given by its changes, count along the chain named.
Tests used:
Experiment in all cases: Inhibition of glucokinase activity by palmitoyl-CoA, Dixon plots
Assay type in all cases: biochemical
GST-GK(p.Ala449Thr) = molecular target: T1, GST-GK(p.Ala449Thr) (Homo sapiens, UniProt P35557, A449T)
T1 construct: made in house; host or cells: E. coli
T1 sequence (P35557 1-465 A449T): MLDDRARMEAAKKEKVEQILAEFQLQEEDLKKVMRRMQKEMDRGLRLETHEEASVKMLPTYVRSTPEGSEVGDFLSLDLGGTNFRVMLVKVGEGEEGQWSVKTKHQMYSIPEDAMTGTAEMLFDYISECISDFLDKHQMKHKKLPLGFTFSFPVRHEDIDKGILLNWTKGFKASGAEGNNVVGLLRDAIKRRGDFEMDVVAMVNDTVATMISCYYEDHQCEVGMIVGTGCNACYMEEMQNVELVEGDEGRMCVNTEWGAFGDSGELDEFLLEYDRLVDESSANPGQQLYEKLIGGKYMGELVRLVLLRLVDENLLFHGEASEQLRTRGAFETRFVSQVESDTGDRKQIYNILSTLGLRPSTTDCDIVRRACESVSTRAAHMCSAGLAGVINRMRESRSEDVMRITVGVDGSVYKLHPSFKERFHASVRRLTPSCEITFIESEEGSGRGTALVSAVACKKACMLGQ
Description: (§1) Glucokinase activity was measured spectrophotometrically on a spectrophotometer Uviconxl (Secoman), using an NADP^+-coupled assay with glucose-6-phosphate dehydrogenase, as described previously. The final reaction mixture contained 100 mM Tris pH 7.4, 150 mM KCl, 1 mM MgCl2, 1.4 mM ß-mercaptoethanol, 0.1% BSA, 5 mM ATP-MgCl2, 1 mM NADP^+, and 1 U/ml glucose-6-phosphate dehydrogenase. Determination of kinetic parameters and thermal stability tests were performed as in [20]. […] Inhibition by NAG and MH was determined under standard assay conditions with 50 nM glucokinase. The inhibition by palmitoylCoA was determined in reaction mixtures containing 25 mM Hepes pH 7.1; 25 mM KCl; 1 mM NADP, 1 mM ATP-MgCl2; 2.5 mM MgCl2; 5 mM ß-mercaptoethanol, 1 U/ml glucose-6-phosphate dehydrogenase and 61 nM glucokinase. Due to the low Kcat value of mutant GST-GK(pAla449Thr), the amount of protein used in inhibition assays was 180 nM to get sufficient activity to allow for accurate determination of the inhibitor effect. In these conditions, GK activity (U/mg of GST-GK(pAla449Thr)) in the absence of inhibitors was 1.3±0.08, 1.1±0.06 and 0.9±0.05 at 2, 1.5 and 1 mM of glucose, respectively for NAG and MH assays and 0.5±0.05, 0.33±0.03 and 0.27±0.03 at 2, 1.5 and 1 mM glucose, respectively for palmitoyl-CoA assay.

Wild-type GST-GK = molecular target: T2, Wild-type GST-GK (Homo sapiens, UniProt P35557); conditions: glucose 2, 5 and 8 mM; 61 nM glucokinase; read-out: I50 for palmitoyl-CoA
T2 construct: made in house; host or cells: E. coli
T2 sequence (P35557 1-465): T1 sequence (P35557 1-465 A449T) with T449A
Description: as §1

GST-GK(p.Gly223Ser) = molecular target: T3, GST-GK(p.Gly223Ser) (Homo sapiens, UniProt P35557, G223S); conditions: glucose 12.5, 25 and 50 mM; read-out: I50 for palmitoyl-CoA
T3 construct: made in house; host or cells: E. coli
T3 sequence (P35557 1-465 G223S): T1 sequence (P35557 1-465 A449T) with G223S, T449A
Description: as §1

In the case of CCCCCCCCCCCCCCCC(=O)SCCNC(=O)CCNC(=O)[C@H](O)C(C)(C)COP(=O)(O)OP(=O)(O)OC[C@H]1O[C@@H](n2cnc3c(N)ncnc32)[C@H](O)[C@@H]1OP(=O)(O)O [palmitoyl-CoA], the “decrease of I50 for palmitoyl-CoA vs wild type” value (GST-GK(p.Ala449Thr)) is reported as ~26%, the IC50 (GST-GK(p.Ala449Thr); glucose 1, 1.5 and 2 mM, 180 nM protein, read-out: I50 for palmitoyl-CoA) is reported as 2240 ± 140 nM and the IC50 (Wild-type GST-GK) is reported as 3060 ± 270 nM. For the same compound, the IC50 (GST-GK(p.Gly223Ser)) was 1420 ± 130 nM.

— paper PMC3265476, “Functional Characterization of MODY2 Mutations Highlights the Importance of the Fine-Tuning of Glucokinase and Its Role in Glucose Sensing” (PLoS ONE, 2012)
